Columns and labels:
CIA = assay: Collagen-induced arthritis (CIA) model; assay type: in vivo, C57BL mice; conditions: for CIA clinical scores: 0.25 mg i.p. on days 0, 3, 6, 9, 12, 15, 18, vs corn oil, FIG. 7A; for Serum level of IL-6 / Frequency of CD4+IL-17+ cells in the secondary lymphoid organs: 0.25 mg i.p.; for Serum level of IL-6: day 45, FIG. 7B; for Frequency of CD4+IL-17+ cells in the secondary lymphoid organs: day 45, flow cytometry, FIG. 7C
IMQ-induced psoriasis = IMQ-induced psoriasis model; assay type: in vivo, male BALB/c mice; conditions: for Clinical scores (erythema and thickness of the right ear): topical ointment 40 mg/cm^2 day 0 to 8, vs Vaseline, FIG. 8A; for Il6 mRNA expression in whole biopsies of the right ear / Il17a mRNA expression in whole biopsies of the right ear: topical ointment, day 8, FIG. 8B
Description: Experimental psoriasis was induced following a modified method described previously (Sun et al. 2013). To induce disease in male BALB/c mice (6-8 weeks; n=6), imiquimod (IMG; Sichuan Med-Shine Pharmaceutical) at 5% was applied topically at 20 mg/cm^2 on the inside of the right ear for 8 consecutive days. An evaluation system for assessment of erythema and thickness of the ear was developed. Erythema was assessed using a table with red […] (0-4) and ear thickness (0-4) measured using a digital caliber on days 2, 4, 6, and 8 after first IMQ application. The sum of the two parameters scores (ranging from 0-8) was used to indicate the overall clinical score. Treatment ointment was prepared by mixing 1 mg of DMSO-dissolved POE or its representative analogs including POE A2 or POE A3 with 20 gm of Vaseline Petroleum Jelly Original (vehicle, Unilever Inc.); the mixture was then incubated at room temperature overnight. From day 0 to day 8 the mice were treated topically with the treatment ointment (40 mg/cm^2) or Vaseline (IMQ/control). The mRNAs encoding Il6 and Il17a were isolated from whole biopsies of the ear (day 8) and reverse transcribed to make cDNA. The cDNA was then amplified by real-time PCR using TaqMan Gene Expression Assays (Mm00446190_ml, Mm00439618_ml, respectively; Applied Biosystems). The relative expression of mRNAs was calculated by the ΔΔCt method and presented relative to that of IMQ control mice.

Structure (SMILES)	CIA clinical scores (CIA)	Serum level of IL-6 (CIA)	Frequency of CD4+IL-17+ cells in the secondary lymphoid organs (CIA)	Clinical scores (erythema and thickness of the right ear) (IMQ-induced psoriasis)	Il6 mRNA expression in whole biopsies of the right ear (IMQ-induced psoriasis)	Il17a mRNA expression in whole biopsies of the right ear (IMQ-induced psoriasis)
Cc1nnc(SCC(=O)c2ccccc2)o1 [POE A1]	comparably reduced CIA clinical scores	reduced serum levels of IL-6	reduced the frequency of CD4^+IL-17^+ cells	–	–	–
Cc1nnc(NCC(=O)c2ccccc2)s1 [POE A2, 2-[(5-methyl-1,3,4-thiadiazol-2-yl)amino]-1-phenylethan-1-one]	comparably reduced CIA clinical scores	reduced serum levels of IL-6	reduced the frequency of CD4^+IL-17^+ cells	comparably reduced clinical scores	suppressed mRNA expression	suppressed mRNA expression
CC(=O)CSc1nnc(-c2cccnc2)o1 [POE A3, 2-Propanone, 1-[[5-(3-pyridinyl)-1,3,4-oxadiazol-2-yl]thio]-]	–	–	–	comparably reduced clinical scores	suppressed mRNA expression	suppressed mRNA expression
